# Data as given in publication PMC6017732, “Identification and Characterizations of Novel, Selective Histone Methyltransferase SET7 Inhibitors by Scaffold Hopping- and 2D-Molecular Fingerprint-Based Similarity Search” (Molecules : A Journal of Synthetic Chemistry and Natural …, 2018).
# Biological target: T1, SET7 (Homo sapiens, UniProt Q8WTS6)
# T1 sequence (Q8WTS6 1-366): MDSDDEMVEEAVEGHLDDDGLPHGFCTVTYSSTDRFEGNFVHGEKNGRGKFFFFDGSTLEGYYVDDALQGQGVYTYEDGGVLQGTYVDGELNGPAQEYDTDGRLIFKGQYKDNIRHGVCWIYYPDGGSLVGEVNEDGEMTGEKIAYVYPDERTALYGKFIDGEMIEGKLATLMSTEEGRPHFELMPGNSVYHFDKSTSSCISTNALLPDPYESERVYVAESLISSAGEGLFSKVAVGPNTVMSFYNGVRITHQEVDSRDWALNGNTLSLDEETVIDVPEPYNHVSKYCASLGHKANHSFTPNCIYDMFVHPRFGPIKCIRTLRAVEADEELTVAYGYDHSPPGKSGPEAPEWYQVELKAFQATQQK
# Test: 3H-labeled radioisotope methylation assay
# Assay type: biochemical
# Conditions: 3H radioactive methylation assay
# Experimental: As for ^3Hradioactive methylation assay, SAH was used as the reference compound and the compounds were tested in 10 concentrations in duplicate in modified Tris buffer (1× assay buffer). The following materials were purchased: SET7 (Enzo, Cat. No. ALX-201-178, New York, NY, USA), [^3H]-SAM (PerkinElmer Inc., Lot. No. 1790854), SAH (Sigma, Cat. No. A9384-25MG, St. Louis, MO, USA) and 384-well Flashplate (Perkin Elmer, Cat. No. SMP410A001PK,). The compounds were transferred to the assay plate by Echo 550 with 3-fold dilution in 100% DMSO where the final DMSO concentration is 1%. Then the enzyme solution was transferred to the assay plate and 1× assay buffer was transferred for low control. After 15 min incubation at room temperature, peptide and [^3H]-SAM mix solution was transferred to each well to start the reaction. The cold SAM in 1× buffer was added to each well to stop the reaction after 60 min incubation at room temperature. 25 μL of the whole reaction system per well was transferred to Flashplate which was washed with dH2O and 0.1% Tween-20 for three times after 60 min incubation. The data was read on Microbeta. All the inhibition assays are performed in duplicate.
row,IC50,SMILES
1,5.4 µM,"Nc1ncnc2c1ncn2[C@@H]1O[C@H](CSCC[C@H](N)C(=O)O)[C@@H](O)[C@H]1O [SAH, reference compound]"

# System: SET7
# Test: not given
# Conditions: SET7, previous research of the authors; cited from earlier work
row,SMILES,IC50
1,COC(=O)c1c(N)sc(C(=O)Nc2cccc([N+](=O)[O-])c2)c1C [DC-S238],4.9 µM
2,CCOC(=O)c1c(N)sc(C(=O)Nc2cccc([N+](=O)[O-])c2)c1C [DC-S239],4.6 µM

# Same assay, conditions: SET7; cited from earlier work
row,SMILES,IC50
1,O=C([C@@H](Cc1cccc(C(F)(F)F)c1)NS(=O)(=O)c1cc(F)c2c(c1)CCNC2)N1CCCC1 [(R)-PFI-2],0.002 µM

# Biological target: T1, SET7
# Test: AlphaLISA SET7 inhibition assay
# Assay type: biochemical
# Conditions: AlphaLISA assay, SAR discussion
# Experimental: AlphaLISA assays were applied to determine the inhibitory activity targeting SET7. The purified SET7 protein was incubated in modified Tris buffer in 384-well plates (Perkin Elmer, Cat. No. 6007299, Waltham, MA, USA) at room temperature for 15 min. The compounds were transferred to the assay plate using Echo in 100% DMSO, and substrate solution was added to each well to start the reaction. Acceptor and donor beads were added and incubated for 60 min at room temperature, shielded from light. The endpoint was evaluated with EndSpire in Alpha mode. The experimental data was fitted in GraphPad Prism 5 to obtain inhibition values using the equation as follows:(1) Inhibition %= Max−Siginal/Max−Min×100%
row,activity against SET7 (in words),SMILES
1,no activity,COc1cc(/C=N/NC(=O)c2ccc(-c3ccccc3)cc2)c([N+](=O)[O-])cc1OC [DC-S305]

# Same assay, conditions: AlphaLISA assay, SET7
row,IC50,SMILES
1,3.4 µM,O=C(NN=Cc1cc2c(cc1Br)OCO2)c1ccc([N+](=O)[O-])cc1 [DC-S351]
2,9.9 µM,O=C(NNC(=O)c1ccc([N+](=O)[O-])cc1)c1ccc(-c2ccccc2)cc1 [DC-S334]
3,3.7 µM,O=C(NN=Cc1ccc(-c2ccccc2Cl)o1)c1ccc([N+](=O)[O-])cc1 [DC-S364]
4,20 µM,COc1cc(/C=N/NC(=O)c2ccc(-c3ccccc3)cc2)ccc1OC(C)=O [DC-S306]
5,46 µM,O=C(CCC(=O)N/N=C/c1cc([N+](=O)[O-])ccc1Cl)NCc1ccccc1 [DC-S314]

# Same assay, conditions: AlphaLISA assay, SET7, 100 μM; read-out: Inhibition Ratio at 100 μM/%
row,inhibition at 100 µM,SMILES
1,96%,O=C(NN=Cc1cc2c(cc1Br)OCO2)c1ccc([N+](=O)[O-])cc1 [DC-S351]
2,9%,O=C(N/N=C/c1cc([N+](=O)[O-])ccc1Cl)c1ccc(O)cc1O [DC-S321]
3,96%,O=C(NNC(=O)c1ccc([N+](=O)[O-])cc1)c1ccc(-c2ccccc2)cc1 [DC-S334]
4,-6%,O=C(N/N=C/c1c(Cl)cccc1Cl)c1ccc(-c2ccccc2)cc1 [DC-S313]
5,-6%,O=C(CCc1ccccc1)NNC(=O)c1ccc(-c2ccccc2)cc1 [DC-S340]
6,5%,O=C(NN=Cc1c(OC(=O)c2ccc(Cl)cc2)ccc2ccccc12)c1ccc([N+](=O)[O-])cc1 [DC-S359]
7,-5%,Cc1cccc(/C=N/NC(=O)c2ccc(-c3ccccc3)cc2)c1 [DC-S309]
8,-6%,O=C(NNC(=O)c1ccc(-c2ccccc2)cc1)c1ccc(F)cc1 [DC-S339]
9,37%,O=C(N/N=C/c1cc([N+](=O)[O-])ccc1Cl)c1cccc(O)c1 [DC-S316]
10,-6%,CCOc1ccc(/C=N/NC(=O)c2ccc(-c3ccccc3)cc2)c(OCC)c1 [DC-S310]
11,11%,O=C(N/N=C/c1cc([N+](=O)[O-])ccc1Cl)c1ccc(O)cc1 [DC-S320]
12,-4%,COc1cc(C=NNC(=O)c2ccc([N+](=O)[O-])cc2)ccc1OC(C)=O [DC-S362]
13,6%,O=C(NN=Cc1ccccc1OC(=O)c1ccc(Cl)cc1)c1ccc([N+](=O)[O-])cc1 [DC-S358]
14,54%,O=C(NN=Cc1ccc(-c2ccccc2Cl)o1)c1ccc([N+](=O)[O-])cc1 [DC-S364]
15,12%,O=C(NNC(=O)c1cccc([N+](=O)[O-])c1)c1ccc(-c2ccccc2)cc1 [DC-S335]
16,14%,Nc1ccccc1C(=O)N/N=C/c1cc([N+](=O)[O-])ccc1Cl [DC-S319]
17,13%,COc1ccc(C=NNC(=O)c2ccc([N+](=O)[O-])cc2)c2ccccc12 [DC-S357]
18,17%,O=C(NN=Cc1c[nH]nc1-c1ccc(Cl)cc1)c1ccc([N+](=O)[O-])cc1 [DC-S356]
19,94%,COc1cc(/C=N/NC(=O)c2ccc(-c3ccccc3)cc2)ccc1OC(C)=O [DC-S306]
20,-10%,O=C(NNC(=O)c1ccccc1C(=O)O)c1ccc(-c2ccccc2)cc1 [DC-S341]
21,-1%,COc1ccc2ccccc2c1C=NNC(=O)c1ccc([N+](=O)[O-])cc1 [DC-S361]
22,-13%,O=C(NNC(=O)C(F)(F)F)c1ccc(-c2ccccc2)cc1 [DC-S342]
23,8%,COc1ccc(/C=N/NC(=O)c2ccc(-c3ccccc3)cc2)cc1O [DC-S307]

row,inhibition at 100 µM,SMILES
1,1%,O=C(NNC(=O)c1cccc(Cl)c1)c1ccc(-c2ccccc2)cc1 [DC-S338]
2,1%,O=C(NNC(=O)c1ccc(-c2ccccc2)cc1)c1ccccc1 [DC-S337]
3,29%,O=C(NN=Cc1cccc(Cl)c1)c1ccc([N+](=O)[O-])cc1 [DC-S345]
4,-3%,O=C(N/N=C/c1cccc(Cl)c1Cl)c1ccc(-c2ccccc2)cc1 [DC-S312]
5,-5%,COc1cc(/C=N/NC(=O)c2ccc(-c3ccccc3)cc2)c([N+](=O)[O-])cc1OC [DC-S305]
6,17%,COC(=O)N/N=C/c1cc([N+](=O)[O-])ccc1Cl [DC-S318]
7,-11%,Cc1c(C=NNC(=O)c2ccc([N+](=O)[O-])cc2)cnn1C [DC-S348]
8,77%,O=C(CCC(=O)N/N=C/c1cc([N+](=O)[O-])ccc1Cl)NCc1ccccc1 [DC-S314]
9,39%,COc1cc(OC)c(C=NNC(=O)c2ccc([N+](=O)[O-])cc2)cc1Br [DC-S352]
10,9%,O=C(NN=Cc1ccc([N+](=O)[O-])cc1)c1ccc(CSc2ccccc2)cc1 [DC-S366]
11,32%,O=C(NN=Cc1ccc(Cl)s1)c1ccc([N+](=O)[O-])cc1 [DC-S344]
12,21%,Nc1ccc(C=NNC(=O)c2ccc([N+](=O)[O-])cc2)cc1 [DC-S346]
13,-15%,O=C(NN=Cc1ccccc1OCc1cccc(Br)c1)c1ccc([N+](=O)[O-])cc1 [DC-S363]
14,44%,O=C(N/N=C/c1ccc(Cl)c([N+](=O)[O-])c1)c1ccc(-c2ccccc2)cc1 [DC-S304]
15,35%,COc1ccc(C=NNC(=O)c2ccc([N+](=O)[O-])cc2)cc1 [DC-S353]
16,46%,O=C(N/N=C/c1cc([N+](=O)[O-])ccc1Cl)C(c1ccccc1)c1ccccc1 [DC-S315]
17,10%,COc1ccc(C(=O)NN=Cc2ccc([N+](=O)[O-])cc2)cc1OC [DC-S365]
18,4%,COc1ccc(-c2ccc(C=NNC(=O)c3ccc([N+](=O)[O-])cc3)o2)cc1Cl [DC-S360]
19,-1%,O=C(NN=Cc1ccc([N+](=O)[O-])cc1)c1cccc(Cl)c1 [DC-S367]
20,10%,O=C(NN=Cc1ccc[nH]1)c1ccc([N+](=O)[O-])cc1 [DC-S347]
21,49%,COc1ccc(C(=O)NNC(=O)c2ccc(-c3ccccc3)cc2)cc1 [DC-S336]
22,6%,O=C(NN=Cc1cn(Cc2ccc(Cl)cc2Cl)c2ccccc12)c1ccc([N+](=O)[O-])cc1 [DC-S350]
23,7%,COc1ccc(/C=N/NC(=O)c2ccc(-c3ccccc3)cc2)c(OC)c1Br [DC-S308]

row,SMILES,inhibition at 100 µM
1,O=C(NN=Cc1ccccc1OC(=O)c1ccc([N+](=O)[O-])cc1)c1ccc([N+](=O)[O-])cc1 [DC-S355],20%
2,O=C(NN=Cc1cc([N+](=O)[O-])ccc1N1CCCCC1)c1ccc([N+](=O)[O-])cc1 [DC-S354],35%
3,O=C(NN=Cc1cc2c(cc1[N+](=O)[O-])OCO2)c1ccc([N+](=O)[O-])cc1 [DC-S349],-1%
